In ChEMBL document CHEMBL1201862, “PubChem BioAssay data set” (2004):
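Values below derive from 48-hour exposures of cells grown in 96-well plates, with endpoints linearly interpolated between the two concentrations bracketing the appropriate inhibition level. Abbreviation: GI50, concentration required for 50% inhibition of growth.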 The source made the active and inactive calls. No stated cut-off is given here; in the data, active = GI50 up to about 1.1 µM and inactive = higher.

Legend:
Test in all cases: NCI-60 cell line screen, 48 h
[1] = tested on: NCI/ADR-RES
[2] = tested on: SF-268
[3] = tested on: HOP-62
[4] = tested on: OVCAR-5
[5] = tested on: HCT-116
[6] = tested on: MDA-MB-435
[7] = tested on: ACHN
[8] = tested on: CAKI-1
[9] = tested on: 786-0
[10] = tested on: K562
[11] = tested on: A498
[12] = tested on: MCF7
[13] = tested on: COLO 205
[14] = tested on: SK-MEL-2
[15] = tested on: SW-620
[16] = tested on: A549
[17] = tested on: SNB-75
[18] = tested on: OVCAR-4
[19] = tested on: DU-145
[20] = tested on: M14

SMILES | GI50 [1] | GI50 [2] | GI50 [3] | GI50 [4] | GI50 [5] | GI50 [6] | GI50 [7] | GI50 [8] | GI50 [9] | GI50 [10] | GI50 [11] | GI50 [12] | GI50 [13] | GI50 [14] | GI50 [15] | GI50 [16] | GI50 [17] | GI50 [18] | GI50 [19] | GI50 [20]
O=C1C(Nc2ccc(S(=O)(=O)Nc3cnc4ccccc4n3)cc2)=C/C(=N\c2ccc(S(=O)(=O)Nc3cnc4ccccc4n3)cc2)c2ccccc21 | 44.6 µM (inactive) | 20 µM (inactive) | 18.3 µM (inactive) | 16.3 µM (inactive) | 18.3 µM (inactive) | 18.9 µM (inactive) | 30.7 µM (inactive) | 16.4 µM (inactive) | 17.2 µM (inactive) | 28.1 µM (inactive) | 15.3 µM (inactive) | 19.5 µM (inactive) | 18.5 µM (inactive) | 17.9 µM (inactive) | 17.5 µM (inactive) | 19.7 µM (inactive) | 14.6 µM (inactive) | 20.8 µM (inactive) | 16.9 µM (inactive) | 18.5 µM (inactive)
O=C(OCCN=C1c2ccccc2CCc2ccccc21)c1cc([N+](=O)[O-])cc([N+](=O)[O-])c1 | > 31.6 µM (inactive) | > 31.6 µM (inactive) | > 31.6 µM (inactive) | > 31.6 µM (inactive) | > 31.6 µM (inactive) | > 31.6 µM (inactive) | > 31.6 µM (inactive) | 29.3 µM (inactive) | > 31.6 µM (inactive) | 20.7 µM (inactive) | > 10 µM (inactive) | > 31.6 µM (inactive) | > 31.6 µM (inactive) | > 31.6 µM (inactive) | > 31.6 µM (inactive) | 26.7 µM (inactive) | > 100 µM (inactive) | 78.2 µM (inactive) | > 31.6 µM (inactive) | > 31.6 µM (inactive)
COC(=O)N/N=C(\C)C(CN1CCOCC1)C(c1ccccc1)c1cc2ccccc2oc1=O (stereo not given) | 55.8 µM (inactive) | > 100 µM (inactive) | > 100 µM (inactive) | > 100 µM (inactive) | > 100 µM (inactive) | > 100 µM (inactive) | > 100 µM (inactive) | > 100 µM (inactive) | > 100 µM (inactive) | 70.5 µM (inactive) | > 100 µM (inactive) | > 100 µM (inactive) | 52.6 µM (inactive) | > 100 µM (inactive) | > 100 µM (inactive) | > 100 µM (inactive) | > 100 µM (inactive) | 74.3 µM (inactive) | > 100 µM (inactive) | > 100 µM (inactive)
CC(=O)Nc1ccc2c(c1)[nH]c(=O)c1cc(Cl)ccc12 | 48.8 µM (inactive) | 26.9 µM (inactive) | 33 µM (inactive) | 27 µM (inactive) | 17.4 µM (inactive) | 23.4 µM (inactive) | 23.9 µM (inactive) | 0.51 µM (active) | 65.6 µM (inactive) | 34.1 µM (inactive) | 29.3 µM (inactive) | 4.48 µM (inactive) | 47.2 µM (inactive) | 46.6 µM (inactive) | 27.7 µM (inactive) | 5.61 µM (inactive) | 52.4 µM (inactive) | 34.1 µM (inactive) | 19.9 µM (inactive) | 36.5 µM (inactive)
Nc1ncnc2ccc(Sc3ccc4ncnc(N)c4c3)cc12 | > 100 µM (inactive) | > 100 µM (inactive) | > 100 µM (inactive) | > 100 µM (inactive) | > 100 µM (inactive) | > 100 µM (inactive) | > 100 µM (inactive) | > 100 µM (inactive) | > 100 µM (inactive) | > 100 µM (inactive) | > 100 µM (inactive) | > 100 µM (inactive) | > 100 µM (inactive) | > 100 µM (inactive) | > 100 µM (inactive) | > 100 µM (inactive) | > 100 µM (inactive) | > 100 µM (inactive) | > 100 µM (inactive) | > 100 µM (inactive)
